The values that follow come from US20260049079A1, “CHIRAL SYNTHESIS OF FUSED BICYCLIC RAF INHIBITORS” (Jazz Pharmaceuticals Ireland Limited, priority 2020, published 2026).

For orientation: hepatocyte CLint means the rate of metabolic loss divided by the concentration. The low end stands for greater metabolic stability, the high end for faster metabolism. The term microsomal CLint denotes a measure of how fast metabolising enzymes remove a compound, apart from limits set by blood flow.

Read-outs that look alike come from different tables or passages of the source.

Data set [1] concerns RAF dimers in HCT-116 cells (Encorafenib-induced pERK signalling). Put plainly: HCT-116 AlphaLISA SureFire pERK1/2 Cellular Assay (Dimer). The data set is classed as cell-based. Particulars: Homo sapiens. How it is done: (§1) The human HCT-116 colorectal carcinoma cell line (ATCC CCL-247) endogenously expresses the KRAS^G13D mutation, which leads to constitutive activation of the MAP kinase pathway and phosphorylation of ERK. […] Assay read outs took place 2 or 24 hours after dosing with compounds. On the first day, HCT-116 cells were harvested, resuspended in growth medium (McCoys5A with Glutamax (Life Technologies 36600021) and 10% heat-inactivated fetal bovine serum (Sigma F9665)), and counted. Cells were plated in 100 μl per well in each well of a 96-well culture dish (Sigma CLS3598) to a final density of 30,000 (2 hr read) or 15,000 (24 hr read) cells per well and incubated over night at 37° C. and 5% CO2. On day 2, the growth medium was exchanged for dosing medium (McCoys5A with Glutamax (Life Technologies 36600021) and 1% heat-inactivated fetal bovine serum (Sigma F9665)) and the cells were dosed with compounds to produce a 10-point dose response, where the top concentration was 1 μM and subsequent concentrations were at ⅓ log dilution intervals. A matched DMSO control was included. The cells were subsequently incubated for either 2 or 24 hours at 37° C. and 5% CO2. After incubation, media was removed and the cells were incubated with lysis buffer containing phosphatase inhibitors for 15 minutes at room temperature. Cell lysates were transferred to a ½ area 96 well white Optiplate™ (Perkin Elmer 6005569) and incubated with anti-mouse IgG acceptor beads, a biotinylated anti-ERK1/2 rabbit antibody recognizing both phosphorylated and non-phosphorylated ERK1/2, a mouse antibody targeted to the Thr202/Tyr204 epitope and recognizing phosphorylated ERK proteins only, and streptavidin-coated donor beads. The biotinylated antibody binds to the streptavidin-coated donor beads and the phopsho-ERK1/2 antibody binds to the acceptor beads. Plates were read on an EnVision reader (Perkin Elmer) and excitation of the beads at 680 nm with a laser induced the release of singlet oxygen molecules from the donor beads that trigger energy transfer to the acceptor beads in close proximity, producing a signal that can be measured at […]. Both antibodies bound to phosphorylated ERK proteins, bringing the donor and acceptor beads into close proximity. All data were analyzed using the Dotmatics or GraphPad Prism software packages. Inhibition of ERK phosphorylation was assessed by determination of the absolute IC50 value, which is defined as the concentration of compound required to decrease the level of phosphorylated ERK proteins by 50% when compared to DMSO control.
HCT-116 AlphaLISA SureFire pERK1/2 Cellular Assay (Dimer) […]

Data set [2] can be described thus: Hepatocyte Stability Assay (MLH). The data set is classed as in vitro ADME. Particulars: mouse hepatocytes, 0.5×10^6 cells/mL, 1 μM compound, 37° C. How it is done: Hepatocyte Stability Assay
Hepatocyte stability studies were performed manually using the substrate depletion approach. Compounds were incubated at 37° C. with cryo-preserved mouse (Bioreclamation) or human (Corning) hepatocytes at a cell density of 0.5×10^6 cells/mL and a final compound concentration of 1 μM. Sampling was performed at defined timepoints and the reaction was terminated by adding to ice-cold organic solvent. Compound concentrations were determined by LC-MS/MS analysis. The natural log of the percentage of compound remaining was plotted against each time point and the slope determined. The half-life (t1/2) and CLint were calculated using Equations 1 and 3, respectively. Data analysis was performed using Excel (Microsoft, USA).
HLH (human liver hepatocytes) and MLH (mouse liver heptaocytes) stability assay results are described in Table 34C.

The nature of data set [3]: Microsomal Stability Assay (HLM). Format: in vitro ADME. Particulars: human liver microsomes, 0.5 mg/mL protein, 1 μM compound, 37° C. How it is done:
Microsomal Stability Assay
The stability studies were performed manually using the substrate depletion approach. Test compounds were incubated at 37° C. with cryo-preserved mouse or human liver microsomes (Corning) at a protein concentration of 0.5 mg·mL^−1 and a final substrate concentration of 1 μM. Aliquots were removed from the incubation at defined timepoints and the reaction was terminated by adding to ice-cold organic solvent. Compound concentrations were determined by LC-MS/MS analysis. The natural log of the percentage of compound remaining was plotted against each time point and the slope determined. The half-life (t1/2) and CLint were calculated using Equations 1 and 2, respectively. Data analysis was performed using Excel (Microsoft, USA).
HLM (human liver microsomes) and MLM (mouse liver microsomes) stability assay results are described in Table 34C.
(In general: Microsomes from liver hold many membrane-bound enzymes, among them those of drug oxidation.)

For data set [4], the system named is BRAF monomers in A375 cells (BRAF V600E, pERK). Put plainly: A375 AlphaLISA SureFire pERK1/2 Cellular Assay (Monomer). Format: cell-based. Particulars: Homo sapiens. How it is done: [Worded in the source for another cell line; used here, by the source, with some conditions changed.] as §1
A375 AlphaLISA SureFire pERK1/2 Cellular Assay (Monomer) […]
For orientation: In Alpha technology, singlet oxygen from a donor bead excites a nearby acceptor bead.

Setting [5] is: HCT-116, 1 h, read-out: PERK HCT116 dimer (1 hr) plC50.
[6] abbreviates: A-375, 1 h, read-out: PERK A375 mono (1 hr) plC50.

Regarding `O=C1CCc2c(Oc3ccc4c(c3)CC(c3ncc(-c5ccc(F)cc5)[nH]3)CO4)ccnc2N1` (racemic) [A-rac], the IC50 was 0.049 µM in data set [1] (setting [5]) and 0.055 µM in data set [4] (setting [6]). In addition, the hepatocyte CLint at 1 µM in data set [2] is 23.4 µL/min/1e6 cells. The intrinsic clearance (microsomal CLint) at 1 µM in data set [3] was 26.9 µL/min/mg.

Take `O=C1CCc2c(Oc3ccc4c(c3)C[C@@H](c3nc(-c5ccc(F)cc5)c[nH]3)CO4)ccnc2N1` (single isomer, unassigned) [Compound A-1]: the IC50 was 0.0407 µM in data set [1] (setting [5]) and 0.0309 µM in data set [4] (setting [6]). Further, in data set [2], the intrinsic clearance (hepatocyte CLint) at 1 µM came to 11 µL/min/1e6 cells. Moreover, the microsomal CLint at 1 µM in data set [3] stood at 21.7 µL/min/mg.

Regarding `O=C1CCc2c(Oc3ccc4c(c3)CC(c3nc(-c5cccs5)c[nH]3)CO4)ccnc2N1` (racemic) [B-rac], the IC50 in data set [1] (HCT-116, HCT116 cells, RAF dimer, 1 hr, read-out: PERK HCT116 dimer (1 hr) plC50 (converted)) is 0.0282 µM; in data set [4] (A-375, A375 cells, BRAF monomer, 1 hr incubation, read-out: PERK A375 mono (1 hr) plC50 (converted)), 0.049 µM. For the same compound, in data set [3], the intrinsic metabolic clearance (microsomal CLint) at 1 µM was 60.1 µL/min/mg.

As for `O=C1CCc2c(Oc3ccc4c(c3)C[C@H](c3nc(-c5ccc(F)cc5)c[nH]3)CO4)ccnc2N1` (single isomer, unassigned) [Compound A-2], the IC50 in data set [1] (setting [5]) was 0.0355 µM; in data set [4] (setting [6]) it was 0.275 µM. Moreover, the hepatocyte CLint at 1 µM in data set [2] came out at 12.5 µL/min/1e6 cells. For the same compound, in data set [3], the microsomal CLint at 1 µM was 11.8 µL/min/mg.
